Test results as given in ChEMBL document CHEMBL4819087, “Identification and optimization of 3-bromo-N'-(4-hydroxybenzylidene)-4-methylbenzohydrazide derivatives as mTOR inhibitors that induce autophagic cell death and apoptosis in triple-negative breast cancer” (Eur J Med Chem, 2021).
Activity calls are given as the source filed them. The calls are words filed in the database; no cut-off is given here.

What was measured:
MDA-MB-231 [1] = assay: Induction of apoptosis in human MDA-MB-231 cells assessed as decrease in Bcl2 level at 2.5 to 10 uM incubated for 24 hrs by western blot analysis; type: functional, cell-based; conditions: dose 2.5-10 µM
MDA-MB-468 [2] = assay: cells; conditions: Homo sapiens, MDA-MB-468, 24 h
Description: Antiproliferative activity against human MDA-MB-468 cells assessed as reduction in cell viability incubated for 24 hrs by MTT assay

MDA-MB-231 [3] = assay: Induction of apoptosis in human MDA-MB-231 cells assessed as late apoptotic cells at 10 uM after 24 hrs by AnnexinV-FITC/PI staining based flow cytometry analysis (reference value: 0.84 to 1.59%); type: functional
MDA-MB-468 [4] = assay: Induction of apoptosis in human MDA-MB-468 cells assessed as necrotic cells at 5 uM after 24 hrs by AnnexinV-FITC/PI staining based flow cytometry analysis (reference value: 1.56%); type: functional
A549 = assay: cells; conditions: Homo sapiens, A549, 24 h
Description: Antiproliferative activity against human A549 cells assessed as reduction in cell viability incubated for 24 hrs by MTT assay

MDA-MB-231 [5] = assay: Induction of apoptosis in human MDA-MB-231 cells assessed as increase in Bax level at 2.5 to 10 uM incubated for 24 hrs by western blot analysis; type: functional, cell-based; conditions: dose 2.5-10 µM
MDA-MB-468 [6] = assay: Antiproliferative activity against human MDA-MB-468 cells assessed as inhibition of cell viability at 5 uM preincubated with autophagy inhibitor, 3-methyladenine for 1 hr followed by compound addition and measured after 24 hrs by MTT assay; type: functional, cell-based
[7] = molecular target: T1, Serine/threonine-protein kinase mTOR (Homo sapiens, UniProt P42345); assay: Inhibition of mTOR in human MDA-MB-231 cells assessed as reduction in phosphorylation of mTOR at Ser2448 residue at 0.5 to 2 uM after 24 hrs by Western blot analysis; type: cell-based; conditions: dose 0.5-2 µM
MDA-MB-468 [8] = assay: Induction of apoptosis in human MDA-MB-468 cells assessed as early apoptic cells at 5 uM after 24 hrs by AnnexinV-FITC/PI staining based flow cytometry analysis (reference value: 0.51%); type: functional
MDA-MB-468 [9] = assay: Induction of apoptosis in human MDA-MB-468 cells assessed as increase in cleaved caspase 3 level at 2.5 to 10 uM incubated for 24 hrs by western blot analysis; type: functional, cell-based; conditions: dose 2.5-10 µM
MDA-MB-231 [10] = assay: Induction of autophagy in human MDA-MB-231 cells assessed as MDC positive ratio at 1 uM incubated for 6 hrs by MDC staining based flow cytometry analysis; type: functional
MDA-MB-231 [11] = assay: Induction of autophagy in human MDA-MB-231 cells assessed as increase in Beclin-1 protein level at 2.5 to 10 uM incubated for 24 hrs by Western blot analysis; type: functional, cell-based; conditions: dose 2.5-10 µM
[12] = molecular target: T1, Serine/threonine-protein kinase mTOR; assay: Inhibition of mTOR in human MDA-MB-231 cells assessed as reduction in total 4EBP1 protein level at 0.5 to 2 uM after 24 hrs by Western blot analysis; type: cell-based; conditions: dose 0.5-2 µM
MDA-MB-231 [13] = assay: Induction of apoptosis in human MDA-MB-231 cells assessed as increase in cleaved caspase 3 level at 2.5 to 10 uM incubated for 24 hrs by western blot analysis; type: functional, cell-based; conditions: dose 2.5-10 µM
MDA-MB-231 [14] = assay: Induction of apoptosis in human MDA-MB-231 cells assessed as early apoptotic cells at 5 uM after 24 hrs by AnnexinV-FITC/PI staining based flow cytometry analysis (reference value: 2.63%); type: functional
MDA-MB-231 [15] = assay: Induction of autophagy in human MDA-MB-231 cells expressing mRFP-EGFP-LC3B at 5 uM measured after 24 hrs by fluorescence microscopic analysis; type: functional, cell-based
MDA-MB-468 [16] = assay: Induction of apoptosis in human MDA-MB-468 cells assessed as late apoptic cells at 2.5 uM after 24 hrs by AnnexinV-FITC/PI staining based flow cytometry analysis (reference value: 2.84%); type: functional
MDA-MB-231 [17] = assay: Induction of apoptosis in human MDA-MB-231 cells assessed as viable cells at 2.5 uM after 24 hrs by AnnexinV-FITC/PI staining based flow cytometry analysis (reference value: 96.45%); type: functional; conditions: read-out: Activity
[18] = molecular target: T1, Serine/threonine-protein kinase mTOR; assay: Inhibition of mTOR (unknown origin)
MDA-MB-468 [19] = assay: Induction of apoptosis in human MDA-MB-468 cells assessed as viable cells at 10 uM after 24 hrs by AnnexinV-FITC/PI staining based flow cytometry analysis (reference value: 95.1 to 96.3%); type: functional; conditions: read-out: Activity
MDA-MB-231 [20] = assay: Induction of apoptosis in human MDA-MB-231 cells assessed as viable cells at 10 uM after 24 hrs by AnnexinV-FITC/PI staining based flow cytometry analysis (reference value: 95.6 to 96.45%); type: functional; conditions: read-out: Activity
MDA-MB-231 [21] = assay: Induction of apoptosis in human MDA-MB-231 cells assessed as necrotic cells at 10 uM after 24 hrs by AnnexinV-FITC/PI staining based flow cytometry analysis (reference value: 0.083%); type: functional
MDA-MB-231 [22] = assay: Antiproliferative activity against human MDA-MB-231 cells measured after 24 hrs by Hoechst 33258 dye based fluorescence microscopic analysis; type: functional, cell-based; conditions: dose 2.5-10 µM
MDA-MB-231 [23] = assay: Induction of apoptosis in human MDA-MB-231 cells assessed as late apoptotic cells at 2.5 uM after 24 hrs by AnnexinV-FITC/PI staining based flow cytometry analysis (reference value: 0.84%); type: functional
MDA-MB-468 [24] = assay: Induction of apoptosis in human MDA-MB-468 cells assessed as necrotic cells at 10 uM after 24 hrs by AnnexinV-FITC/PI staining based flow cytometry analysis (reference value: 1.56%); type: functional
MDA-MB-231 [25] = assay: Induction of apoptosis in human MDA-MB-231 cells assessed as early apoptotic cells at 10 uM after 24 hrs by AnnexinV-FITC/PI staining based flow cytometry analysis (reference value: 2.43 to 2.63%); type: functional
MDA-MB-231 [26] = assay: Induction of autophagy in human MDA-MB-231 cells assessed as reduction in p62 protein level at 2.5 to 10 uM incubated for 24 hrs by Western blot analysis; type: functional, cell-based; conditions: dose 2.5-10 µM
MDA-MB-468 [27] = assay: Induction of apoptosis in human MDA-MB-468 cells assessed as increase in Bax level at 2.5 to 10 uM incubated for 24 hrs by western blot analysis; type: functional, cell-based; conditions: dose 2.5-10 µM
[28] = molecular target: T1, Serine/threonine-protein kinase mTOR; assay: Inhibition of mTOR in human MDA-MB-231 cells assessed as reduction in p70S6K(Thr389) protein level at 0.5 to 2 uM after 24 hrs by Western blot analysis; type: cell-based; conditions: dose 0.5-2 µM
MDA-MB-468 [29] = assay: (§1) Induction of apoptosis in human MDA-MB-468 cells assessed as early apoptotic cells at 10 uM pretreated for 1 hr with autophagy inhibitor, 3-methyladenine followed by incubation with compound and measured after 24 hrs by Annexin V-FITC/propidium iodide staining based flow cytometry (reference value: 4.08%); type: functional; set-up: scale not given: the % may be the effect or the level left
MDA-MB-231 [30] = assay: as §1, with “MDA-MB-231” for “MDA-MB-468”, “pretreated” for “pretreated for 1 hr”, “3-methyladenine for 1 hr” for “3-methyladenine”, “3.81%)” for “4.08%)”; type: functional; set-up: scale not given: the % may be the effect or the level left
MDA-MB-231 [31] = assay: Inhibition of colony formation in human MDA-MB-231 cells at 10 uM incubated for 14 days in presence of autophagy inhibitor, 3-methyladenine by crystal violet staining based analysis; type: functional, cell-based; conditions: time 14.0 day
MDA-MB-468 [32] = assay: Inhibition of colony formation in human MDA-MB-468 cells at 10 uM incubated for 14 days in presence of autophagy inhibitor, 3-methyladenine by crystal violet staining based analysis; type: functional, cell-based; conditions: time 14.0 day
MDA-MB-231 [33] = assay: Induction of apoptosis in human MDA-MB-231 cells assessed as necrotic cells at 2.5 uM after 24 hrs by AnnexinV-FITC/PI staining based flow cytometry analysis (reference value: 0.083%); type: functional

With `C/C(=N\NC(=O)c1cccc(Br)c1)c1ccc(C(=O)Nc2nc3ccccc3[nH]2)cc1` the Activity (MDA-MB-231 [1]) was “Active”, the IC50 (MDA-MB-468 [2]) was 4.3 µM and the Activity (MDA-MB-231 [3]) was 5.71%. The Activity (MDA-MB-468 [4]) was 0.87%, the IC50 (A549) was 6.48 µM and the Activity (MDA-MB-231 [5]) was “Active”. For the same compound, the Activity (MDA-MB-468 [6]) was “Active”, the inhibition [7] was “Active” and the Activity (MDA-MB-468 [8]) was 5.57%. For the same compound, the Activity (MDA-MB-468 [9]) was “Active”, the Activity (MDA-MB-231 [10]) was 25.67% and the Activity (MDA-MB-231 [11]) was “Active”. For the same compound, the inhibition [12] was “Active”, the Activity (MDA-MB-231 [13]) was “Active” and the Activity (MDA-MB-231 [14]) was 10.5%. The Activity (MDA-MB-231 [15]) was “Active”, the Activity (MDA-MB-468 [16]) was 4.96% and the viability at 2.5 µM (MDA-MB-231 [17]) was 90.1%. For the same compound, the IC50 [18] was 304 nM, the viability at 10 µM (MDA-MB-468 [19]) was 60.5% and the viability at 10 µM (MDA-MB-231 [20]) was 70.2%. The Activity (MDA-MB-231 [21]) was 0.15%, the Activity (MDA-MB-231 [22]) was “Dose-Dependent Effect” and the Activity (MDA-MB-231 [23]) was 2.96%. The Activity (MDA-MB-468 [24]) was 1.24%, the Activity (MDA-MB-231 [25]) was 12.9% and the Activity (MDA-MB-231 [26]) was “Active”. The Activity (MDA-MB-468 [27]) was “Active”, the inhibition [28] was “Active” and the Activity (MDA-MB-468 [29]) was 7.07%. For the same compound, the Activity (MDA-MB-231 [30]) was 6.1%, the inhibition (MDA-MB-231 [31]) was “Active” and the inhibition (MDA-MB-468 [32]) was “Active”. It also gave an Activity (MDA-MB-231 [33]) of 0.076%.
